Measurements: US20240109900A1, “AZABICYCLIC SHP2 INHIBITORS” (IRBM S.P.A., priority 2021, published 2024)

How the values were obtained:
[1] = target: SHP-2 enzyme (Met1-Leu525) (Homo sapiens (Human), UniProt Q06124); test: SHP2 inhibition enzymatic assay; assay type: biochemical; conditions: 0.5 nM SHP-2 activated by 500 nM IRS1 peptide, 75 μM DiFMUP substrate; read-out: SHP2wt-IC50
How it was run: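 SHP-2 (Met1-Leu525), 0.5 nM, activated with 500 nM IRS1 bis-phosphopeptide, preincubated 30 min with compounds in HEPES pH 7.2 buffer with 5 mM DTT. 75 μM DiFMUP added for 30 min at room temperature, stopped with bpV; fluorescence read. IC50 from four-parameter logistic fit of % inhibition.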

[2] = tested on: ERK phosphorylation in KYSE-520 cells; test: Phospho-ERK cellular assay; assay type: cell-based; conditions: Homo sapiens, KYSE-520, 2 h, KYSE-520 cells, 2 h at 37° C., phospho-ERK1/2 (Thr202/Tyr204) TR-FRET; read-out: PERK IC50
How it was run: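 TR-FRET read-out of ERK1/2 Thr202/Tyr204 phosphorylation was taken after overnight antibody incubation at room temperature. Before that, KYSE-520 cells were treated 2 h at 37 °C with compound dilutions and lysed 30 min. Percent inhibition relative to vehicle and cell-free wells was fitted four-parametrically to give IC50.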

SHP-2 enzyme (Met1-Leu525), sequence (Q06124 1-525): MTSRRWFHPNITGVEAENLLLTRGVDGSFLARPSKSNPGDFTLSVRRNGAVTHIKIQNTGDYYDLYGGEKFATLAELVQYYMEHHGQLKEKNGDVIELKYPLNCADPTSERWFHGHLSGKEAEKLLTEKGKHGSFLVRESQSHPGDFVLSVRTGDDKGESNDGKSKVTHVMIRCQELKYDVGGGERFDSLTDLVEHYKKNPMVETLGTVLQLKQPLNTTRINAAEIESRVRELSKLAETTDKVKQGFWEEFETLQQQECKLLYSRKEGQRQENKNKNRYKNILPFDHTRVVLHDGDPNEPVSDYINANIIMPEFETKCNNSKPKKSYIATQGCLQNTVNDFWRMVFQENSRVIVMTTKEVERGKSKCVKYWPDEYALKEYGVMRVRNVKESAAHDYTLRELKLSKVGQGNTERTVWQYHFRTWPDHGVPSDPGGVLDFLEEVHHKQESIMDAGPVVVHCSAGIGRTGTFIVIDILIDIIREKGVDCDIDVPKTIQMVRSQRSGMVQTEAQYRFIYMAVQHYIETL

Q: `Cc1c(-c2n[nH]c3nc(N4CC[C@@H]5[C@H](C4)[C@@]5(CN)c4ccccc4Cl)cnc23)ccc2nn(C)cc12` [Example 180, ((1S,6R,7R)-7-(2-chlorophenyl)-3-(3-(2,4-dimethyl-2H-indazol-5-yl)-1H-pyrazolo[3,4-b]pyrazin-6-yl)-3-azabicyclo[4.1.0]heptan-7-yl)methanamine] was tested. Which IC50 [1] did it give?
A: The IC50 was less than 500 nM.

Q: And the IC50 [2]?
A: Its IC50 is less than 1000 nM.

Q: With `NC[C@]1(c2ccccc2Cl)[C@@H]2CCN(c3cnc4c(-c5ccnc(N)c5Cl)n[nH]c4n3)C[C@@H]21` [Example 181, 4-(6-((1S,6R,7R)-7-(aminomethyl)-7-(2-chlorophenyl)-3-azabicyclo[4.1.0]heptan-3-yl)-1H-pyrazolo[3,4-b]pyrazin-3-yl)-3-chloropyridin-2-amine] as the compound, how does the IC50 [1] read?
A: Its IC50 is less than 500 nM.

Q: What about the IC50 [2] of the same compound?
A: Its IC50 is less than 1000 nM.

Q: Which IC50 [1] does the source give for `Cc1c(-c2n[nH]c3nc(N4CC[C@@H]5[C@H](C4)[C@@]5(CN)c4ccccc4C(F)(F)F)cnc23)ccc2nn(C)cc12` [Example 182, ((1S,6R,7R)-3-(3-(2,4-dimethyl-2H-indazol-5-yl)-1H-pyrazolo[3,4-b]pyrazin-6-yl)-7-(2-(trifluoromethyl)phenyl)-3-azabicyclo[4.1.0]heptan-7-yl)methanamine] here?
A: The IC50 was less than 500 nM.

Q: And the IC50 [2]?
A: Its IC50 is less than 1000 nM.

Q: How did the IC50 [1] turn out when `COc1ccc(-c2n[nH]c3nc(N4CC[C@@H]5[C@H](C4)[C@@]5(CN)c4cccc(F)c4F)cnc23)c2cccnc12` [Example 183, ((1S,6R,7R)-7-(2,3-difluorophenyl)-3-(3-(8-methoxyquinolin-5-yl)-1H-pyrazolo[3,4-b]pyrazin-6-yl)-3-azabicyclo[4.1.0]heptan-7-yl)methanamine] was run?
A: Its IC50 is less than 500 nM.

Q: What about the IC50 [2] of the same compound?
A: The IC50 was less than 1000 nM.

Q: With `Cc1cccc([C@@]2(CN)[C@@H]3CCN(c4cnc5c(-c6ccc7nn(C)cc7c6C)n[nH]c5n4)C[C@@H]32)c1F` [Example 184, ((1S,6R,7R)-3-(3-(2,4-dimethyl-2H-indazol-5-yl)-1H-pyrazolo[3,4-b]pyrazin-6-yl)-7-(2-fluoro-3-methylphenyl)-3-azabicyclo[4.1.0]heptan-7-yl)methanamine] as the compound, how does the IC50 [1] read?
A: The IC50 was less than 500 nM.

Q: And the IC50 [2]?
A: Its IC50 is less than 1000 nM.

Q: How did the IC50 [1] turn out when `Cc1c(-c2n[nH]c3nc(N4CC[C@@H]5[C@H](C4)[C@@]5(CN)c4ncc(C5CC5)cc4F)cnc23)ccc2nn(C)cc12` [Example 185, ((1S,6R,7S)-7-(5-cyclopropyl-3-fluoropyridin-2-yl)-3-(3-(2,4-dimethyl-2H-indazol-5-yl)-1H-pyrazolo[3,4-b]pyrazin-6-yl)-3-azabicyclo[4.1.0]heptan-7-yl)methanamine] was run?
A: The IC50 was less than 500 nM.

Q: What about the IC50 [2] of the same compound?
A: The IC50 was less than 1000 nM.

Q: For `NC[C@]1(c2ccccc2F)[C@@H]2CCN(c3cnc4c(-c5ccnc6occc56)n[nH]c4n3)C[C@@H]21` [Example 186, ((1S,6R,7R)-7-(2-fluorophenyl)-3-(3-(furo[2,3-b]pyridin-4-yl)-1H-pyrazolo[3,4-b]pyrazin-6-yl)-3-azabicyclo[4.1.0]heptan-7-yl)methanamine], which IC50 [1] is on record?
A: The IC50 was less than 500 nM.

Q: What about the IC50 [2] of the same compound?
A: Its IC50 is less than 1000 nM.

Q: With `NC[C@]1(c2ccccc2F)[C@@H]2CCN(c3cnc4c(-c5ccc6c(c5)CC(=O)N6)n[nH]c4n3)C[C@@H]21` [Example 187, 5-(6-((1S,6R,7R)-7-(aminomethyl)-7-(2-fluorophenyl)-3-azabicyclo[4.1.0]heptan-3-yl)-1H-pyrazolo[3,4-b]pyrazin-3-yl)indolin-2-one] as the compound, how does the IC50 [1] read?
A: The IC50 was less than 500 nM.

Q: What about the IC50 [2] of the same compound?
A: The IC50 was less than 1000 nM.

Q: Which results are given for `COc1cnc2ccc(-c3n[nH]c4nc(N5CC[C@@H]6[C@H](C5)[C@@]6(CN)c5ccccc5F)cnc34)cc2n1` [Example 188, ((1S,6R,7R)-7-(2-fluorophenyl)-3-(3-(3-methoxyquinoxalin-6-yl)-1H-pyrazolo[3,4-b]pyrazin-6-yl)-3-azabicyclo[4.1.0]heptan-7-yl)methanamine]?
A: IC50 [1]: < 500 nM; IC50 [2]: < 1000 nM

Q: What does the source list for `Cc1nccc(-c2n[nH]c3nc(N4CC[C@@H]5[C@H](C4)[C@@]5(CN)c4ccccc4F)cnc23)c1Cl` [Example 189, ((1S,6R,7R)-3-(3-(3-chloro-2-methylpyridin-4-yl)-1H-pyrazolo[3,4-b]pyrazin-6-yl)-7-(2-fluorophenyl)-3-azabicyclo[4.1.0]heptan-7-yl)methanamine]?
A: IC50 [1]: < 500 nM; IC50 [2]: < 1000 nM

Q: Which results are given for `CN(C)c1nccc(-c2n[nH]c3nc(N4CC[C@@H]5[C@H](C4)[C@@]5(CN)c4ccccc4F)cnc23)c1Cl` [Example 190, 4-(6-((1S,6R,7R)-7-(aminomethyl)-7-(2-fluorophenyl)-3-azabicyclo[4.1.0]heptan-3-yl)-1H-pyrazolo[3,4-b]pyrazin-3-yl)-3-chloro-N,N-dimethylpyridin-2-amine]?
A: IC50 [1]: < 500 nM; IC50 [2]: < 1000 nM

Q: How did the IC50 [1] turn out when `COc1ccc2c(-c3n[nH]c4nc(N5CC[C@@H]6[C@H](C5)[C@@]6(CN)c5ccccc5F)cnc34)ccnc2c1` [Example 191, ((1S,6R,7R)-7-(2-fluorophenyl)-3-(3-(7-methoxyquinolin-4-yl)-1H-pyrazolo[3,4-b]pyrazin-6-yl)-3-azabicyclo[4.1.0]heptan-7-yl)methanamine] was run?
A: The IC50 was less than 500 nM.

Q: What about the IC50 [2] of the same compound?
A: The IC50 was less than 1000 nM.

Q: Which results are given for `CN(C)Cc1ccc(-c2n[nH]c3nc(N4CC[C@@H]5[C@H](C4)[C@@]5(CN)c4ccccc4F)cnc23)c2cccnc12` [Example 192, 1-(5-(6-((1S,6R,7R)-7-(aminomethyl)-7-(2-fluorophenyl)-3-azabicyclo[4.1.0]heptan-3-yl)-1H-pyrazolo[3,4-b]pyrazin-3-yl)quinolin-8-yl)-N,N-dimethylmethanamine]?
A: IC50 [1]: < 500 nM; IC50 [2]: > 5000 nM

Q: With `Cc1c(-c2n[nH]c3nc(N4CC[C@@H]5[C@H](C4)[C@@]5(CN)c4ccccc4F)cnc23)ccc2nonc12` [Example 193, ((1S,6R,7R)-7-(2-fluorophenyl)-3-(3-(4-methylbenzo[c][1,2,5]oxadiazol-5-yl)-1H-pyrazolo[3,4-b]pyrazin-6-yl)-3-azabicyclo[4.1.0]heptan-7-yl)methanamine] as the compound, how does the IC50 [1] read?
A: Its IC50 is less than 500 nM.

Q: What about the IC50 [2] of the same compound?
A: The IC50 was less than 1000 nM.

Q: How did the IC50 [1] turn out when `Cn1cc2c(C3CC3)c(-c3n[nH]c4nc(N5CC[C@@H]6[C@H](C5)[C@@]6(CN)c5ccccc5F)cnc34)ccc2n1` [Example 194, ((1S,6R,7R)-3-(3-(4-cyclopropyl-2-methyl-2H-indazol-5-yl)-1H-pyrazolo[3,4-b]pyrazin-6-yl)-7-(2-fluorophenyl)-3-azabicyclo[4.1.0]heptan-7-yl)methanamine] was run?
A: Its IC50 is less than 500 nM.

Q: What about the IC50 [2] of the same compound?
A: Its IC50 is less than 1000 nM.

Q: How did the IC50 [1] turn out when `Cc1nccc(-c2n[nH]c3nc(N4CC[C@@H]5[C@H](C4)[C@@]5(CN)c4ccccc4F)cnc23)c1F` [Example 195, ((1S,6R,7R)-3-(3-(3-fluoro-2-methylpyridin-4-yl)-1H-pyrazolo[3,4-b]pyrazin-6-yl)-7-(2-fluorophenyl)-3-azabicyclo[4.1.0]heptan-7-yl)methanamine] was run?
A: The IC50 was less than 500 nM.

Q: What about the IC50 [2] of the same compound?
A: The IC50 was less than 1000 nM.

Q: What does the source list for `NC[C@]1(c2ccccc2F)[C@@H]2CCN(c3cnc4c(-c5cc(N)ncc5Cl)n[nH]c4n3)C[C@@H]21` [Example 196, 4-(6-((1S,6R,7R)-7-(aminomethyl)-7-(2-fluorophenyl)-3-azabicyclo[4.1.0]heptan-3-yl)-1H-pyrazolo[3,4-b]pyrazin-3-yl)-5-chloropyridin-2-amine]?
A: IC50 [1]: < 500 nM; IC50 [2]: < 1000 nM

Q: For `NC[C@]1(c2ccccc2F)[C@@H]2CCN(c3cnc4c(-c5ccnc(NC6CC6)c5Cl)n[nH]c4n3)C[C@@H]21` [Example 197, 4-(6-((1S,6R,7R)-7-(aminomethyl)-7-(2-fluorophenyl)-3-azabicyclo[4.1.0]heptan-3-yl)-1H-pyrazolo[3,4-b]pyrazin-3-yl)-3-chloro-N-cyclopropylpyridin-2-amine], which IC50 [1] is on record?
A: Its IC50 is less than 500 nM.

Q: What about the IC50 [2] of the same compound?
A: Its IC50 is less than 1000 nM.

Q: Which results are given for `Cn1c(-c2n[nH]c3nc(N4CC[C@@H]5[C@H](C4)[C@@]5(CN)c4ccccc4F)cnc23)cccc1=O` [Example 198, 6-(6-((1S,6R,7R)-7-(aminomethyl)-7-(2-fluorophenyl)-3-azabicyclo[4.1.0]heptan-3-yl)-1H-pyrazolo[3,4-b]pyrazin-3-yl)-1-methylpyridin-2(1H)-one]?
A: IC50 [1]: < 500 nM; IC50 [2]: < 1000 nM

Q: For `Cc1c(-c2n[nH]c3nc(N4CC[C@@H]5[C@H](C4)[C@@]5(CN)c4ccc(F)cc4F)cnc23)ccc2nn(C)cc12` [Example 199, ((1S,6R,7R)-7-(2,4-difluorophenyl)-3-(3-(2,4-dimethyl-2H-indazol-5-yl)-1H-pyrazolo[3,4-b]pyrazin-6-yl)-3-azabicyclo[4.1.0]heptan-7-yl)methanamine], which IC50 [1] is on record?
A: Its IC50 is less than 500 nM.

Q: What about the IC50 [2] of the same compound?
A: The IC50 was less than 1000 nM.

Q: With `COc1ccc(-c2n[nH]c3nc(N4CC[C@@H]5[C@H](C4)[C@@]5(CN)c4ccc(F)cc4F)cnc23)c2cccnc12` [Example 200, ((1S,6R,7R)-7-(2,4-difluorophenyl)-3-(3-(8-methoxyquinolin-5-yl)-1H-pyrazolo[3,4-b]pyrazin-6-yl)-3-azabicyclo[4.1.0]heptan-7-yl)methanamine] as the compound, how does the IC50 [1] read?
A: The IC50 was less than 500 nM.

Q: What about the IC50 [2] of the same compound?
A: Its IC50 is less than 1000 nM.

Q: Which IC50 [1] does the source give for `COc1ccc(-c2n[nH]c3nc(N4CC[C@@H]5[C@H](C4)[C@@]5(CN)c4ccccc4F)cnc23)c2ccc(C)nc12` [Example 201, ((1S,6R,7R)-7-(2-fluorophenyl)-3-(3-(8-methoxy-2-methylquinolin-5-yl)-1H-pyrazolo[3,4-b]pyrazin-6-yl)-3-azabicyclo[4.1.0]heptan-7-yl)methanamine] here?
A: Its IC50 is less than 500 nM.

Q: And the IC50 [2]?
A: Its IC50 is less than 1000 nM.

Q: How did the IC50 [1] turn out when `Cn1cc2c(C(F)F)c(-c3n[nH]c4nc(N5CC[C@@H]6[C@H](C5)[C@@]6(CN)c5ccccc5F)cnc34)ccc2n1` [Example 202, ((1S,6R,7R)-3-(3-(4-(difluoromethyl)-2-methyl-2H-indazol-5-yl)-1H-pyrazolo[3,4-b]pyrazin-6-yl)-7-(2-fluorophenyl)-3-azabicyclo[4.1.0]heptan-7-yl)methanamine] was run?
A: Its IC50 is less than 500 nM.

Q: And the IC50 [2]?
A: Its IC50 is less than 1000 nM.
